5 molecules from US6417359B1, “Pharmaceutical compositions and methods for use” (priority 1998, dated 2002) can be followed below.

For one test, the target named is muscle-type receptors (Homo sapiens, UniProt P02708+P07510+P11230+Q07001). Briefly: Determination of interaction with muscle receptors. It counts as cell-based. To be noted: percentage of maximal activation induced by (S)-(−)-nicotine. How it is done: Determination of Interaction with Muscle Receptors
The determination of the interaction of the compounds with muscle receptors was carried out in accordance with the techniques described in U.S. Pat. No. 5,597,919 to Dull et al. The maximal activation for individual compounds (Emax) was determined as a percentage of the maximal activation induced by (S)-(−)-nicotine. Reported Emax values represent the amount released relative to (S)-(−)-nicotine on a percentage basis.

Test [1] has as its system nicotinic receptors associated with dopamine release. The test is described as follows: Dopamine release (receptor activation/inhibition). It counts as biochemical. The conditions noted are these: for Emax, dopamine release: amount released relative to (S)-(−)-nicotine. How it is done: Determination of Receptor Activation/Inhibition and Dopamine Release
Dopamine release was measured using the techniques described in U.S. Pat. No. 5,597,919 to Dull et al. Release is expressed as a percentage of release obtained with a concentration of (S)-(−)-nicotine resulting in maximal effects. Reported EC50 values are expressed in nM, and Emax values represent the amount released relative to (S)-(−)-nicotine or tetramethylammonium ion (TMA), on a percentage basis.
Reported IC50 values are expressed in nM and represent the concentration resulting in 50% inhibition of agonist induced receptor activation. Emax values represent the amount released relative to (S)-(−)-nicotine on a percentage basis.

The next test concerns ganglia-type receptors. Briefly: Determination of interaction with ganglion receptors. Format: cell-based. To be noted: percentage of maximal activation induced by (S)-(−)-nicotine. How it is done:
Determination of Interaction with Ganglion Receptors The determination of the interaction of the compounds with ganglionic receptors was carried out in accordance with the techniques described in U.S. Pat. No. 5,597,919 to Dull et al. The maximal activation for individual compounds (Emax) was determined as a percentage of the maximal activation induced by (S)-(−)-nicotine. Reported Emax values represent the amount released relative to (S)-(−)-nicotine on a percentage basis.

Where only a bound is given, the exact number is not on record here.

muscle-type receptors, sequence (P02708 whole entry): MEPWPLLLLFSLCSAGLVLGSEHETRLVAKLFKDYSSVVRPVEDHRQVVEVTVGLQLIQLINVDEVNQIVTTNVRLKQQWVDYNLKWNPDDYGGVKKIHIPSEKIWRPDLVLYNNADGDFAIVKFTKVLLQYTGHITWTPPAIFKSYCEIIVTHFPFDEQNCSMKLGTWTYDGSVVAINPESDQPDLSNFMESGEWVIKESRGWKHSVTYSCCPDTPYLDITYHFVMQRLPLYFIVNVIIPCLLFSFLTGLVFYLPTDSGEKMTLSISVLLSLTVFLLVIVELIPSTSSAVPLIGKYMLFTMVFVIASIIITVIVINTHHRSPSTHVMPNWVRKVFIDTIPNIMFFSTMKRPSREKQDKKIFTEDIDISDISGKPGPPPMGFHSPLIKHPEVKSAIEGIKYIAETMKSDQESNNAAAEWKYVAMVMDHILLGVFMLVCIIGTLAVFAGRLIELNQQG
muscle-type receptors, sequence (P11230 24-501): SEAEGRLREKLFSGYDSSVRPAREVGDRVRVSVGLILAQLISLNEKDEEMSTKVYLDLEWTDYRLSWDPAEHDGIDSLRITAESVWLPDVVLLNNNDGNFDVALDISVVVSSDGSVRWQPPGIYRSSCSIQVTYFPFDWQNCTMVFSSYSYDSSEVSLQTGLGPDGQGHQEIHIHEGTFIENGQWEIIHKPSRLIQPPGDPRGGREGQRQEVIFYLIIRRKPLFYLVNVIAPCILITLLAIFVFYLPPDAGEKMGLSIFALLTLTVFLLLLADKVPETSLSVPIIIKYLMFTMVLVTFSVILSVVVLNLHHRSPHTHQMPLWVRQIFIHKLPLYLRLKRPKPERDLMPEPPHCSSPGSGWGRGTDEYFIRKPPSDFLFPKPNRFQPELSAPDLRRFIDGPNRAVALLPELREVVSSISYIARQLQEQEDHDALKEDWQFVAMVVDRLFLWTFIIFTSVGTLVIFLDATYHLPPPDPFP
muscle-type receptors, sequence (P07510 23-517): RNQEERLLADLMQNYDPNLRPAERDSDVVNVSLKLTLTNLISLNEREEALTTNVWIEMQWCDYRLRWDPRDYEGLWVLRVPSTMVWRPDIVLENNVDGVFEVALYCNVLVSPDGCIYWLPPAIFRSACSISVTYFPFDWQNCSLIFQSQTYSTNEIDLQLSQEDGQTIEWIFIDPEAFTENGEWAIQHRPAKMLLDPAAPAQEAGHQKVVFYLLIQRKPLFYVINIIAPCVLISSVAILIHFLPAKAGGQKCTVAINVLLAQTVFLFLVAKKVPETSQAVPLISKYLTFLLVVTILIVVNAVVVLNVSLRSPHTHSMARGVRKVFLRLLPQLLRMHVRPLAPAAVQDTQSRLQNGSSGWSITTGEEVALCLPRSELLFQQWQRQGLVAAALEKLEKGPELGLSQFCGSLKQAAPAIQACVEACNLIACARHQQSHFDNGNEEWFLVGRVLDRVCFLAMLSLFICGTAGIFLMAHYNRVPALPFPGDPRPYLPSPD
muscle-type receptors, sequence (Q07001 22-517): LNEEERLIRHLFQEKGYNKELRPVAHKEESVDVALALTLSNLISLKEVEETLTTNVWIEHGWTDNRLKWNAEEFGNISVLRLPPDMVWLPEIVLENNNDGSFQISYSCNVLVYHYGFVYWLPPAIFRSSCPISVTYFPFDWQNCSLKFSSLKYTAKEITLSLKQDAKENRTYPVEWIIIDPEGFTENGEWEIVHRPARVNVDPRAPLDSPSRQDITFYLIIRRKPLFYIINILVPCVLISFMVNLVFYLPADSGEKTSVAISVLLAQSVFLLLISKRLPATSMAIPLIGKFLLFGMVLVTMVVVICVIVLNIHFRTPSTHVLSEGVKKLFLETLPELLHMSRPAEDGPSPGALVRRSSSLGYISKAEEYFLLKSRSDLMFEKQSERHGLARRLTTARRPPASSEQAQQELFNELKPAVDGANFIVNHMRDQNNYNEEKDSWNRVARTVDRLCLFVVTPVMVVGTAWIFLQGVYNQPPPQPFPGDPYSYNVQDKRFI

`c1cncc(C2C3CC4CC(C3)CN2C4)c1` (centres unmarked) [Sample No. 1, 1-aza-2-(3-pyridyl)-tricyclo[3.3.1.1^3,7]decane]: the maximum response (Emax) on muscle-type receptors came out at 21%. In test [1], the “Emax, dopamine release” value is 0%. For the same molecule, in the test on ganglia-type receptors, the “Emax at ganglia-type receptors” value is 27%.

For the molecule `Brc1cncc(C2C3CC4CC(C3)CN2C4)c1` (centres unmarked) [Sample No. 2, 1-aza-2-[5-bromo(3-pyridyl)]tricyclo[3.3.1.1^3,7]decane], the maximal response (Emax) at muscle-type receptors came to 32%. In test [1], the 50% effective concentration (EC50) was above 100 µM and the “Emax, dopamine release” value turned out to be 0%. In addition, the “Emax at ganglia-type receptors” value with ganglia-type receptors is 50%.

Regarding `Cl.Cl.Cl.Nc1cncc(C2C3CC4CC(C3)CN2C4)c1` (centres unmarked) [Sample No. 3, 1-aza-2-[5-amino-(3-pyridyl)]tricyclo[3.3.1.1^3,7]decane trihydrochloride], the Emax on muscle-type receptors stood at 75%. For the same molecule, in test [1], the 50% effective concentration (EC50) is above 100 µM and the “Emax, dopamine release” value came to 0%. In addition, in the test with ganglia-type receptors, the maximum response (Emax) at ganglia-type receptors was 17%.

As to `CCOc1cncc(C2C3CC4CC(C3)CN2C4)c1` (centres unmarked) [Sample No. 4, 1-aza-2-[5-ethoxy-(3-pyridyl)]-tricyclo-[3.3.1.1^3,7]decane], at muscle-type receptors, the Emax is 22%. In test [1], the EC50 was above 100 µM and the “Emax, dopamine release” value was determined as 0%. Moreover, the IC50 in test [1] (concentration resulting in 50% inhibition of agonist induced receptor activation) came out at 0.846 µM. Further, the maximal response (Emax) at ganglia-type receptors with ganglia-type receptors was determined as 0%.

Molecule `CC(C)Oc1cncc(C2C3CC4CC(C3)CN2C4)c1` (centres unmarked) [Sample No. 5, 1-aza-2-[5-isopropoxy-(3-pyridyl)]tricyclo[3.3.1.1^3,7]decane] gave a maximal response (Emax) on muscle-type receptors of 114%. In addition, in test [1], the half-maximal effective concentration (EC50) is above 100 µM and the “Emax, dopamine release” value turned out to be 0%. The “Emax at ganglia-type receptors” value with ganglia-type receptors was determined as 7%.
